From patent US7320863B2 (Albert Einstein College of Medicine of Yeshiva University, priority 1996, dated 2008) come the findings set out here.

Assay [1] deals with T1, rat sodium/iodide symporter (Rattus norvegicus, UniProt Q63008).
T1 sequence (Q63008 1-618): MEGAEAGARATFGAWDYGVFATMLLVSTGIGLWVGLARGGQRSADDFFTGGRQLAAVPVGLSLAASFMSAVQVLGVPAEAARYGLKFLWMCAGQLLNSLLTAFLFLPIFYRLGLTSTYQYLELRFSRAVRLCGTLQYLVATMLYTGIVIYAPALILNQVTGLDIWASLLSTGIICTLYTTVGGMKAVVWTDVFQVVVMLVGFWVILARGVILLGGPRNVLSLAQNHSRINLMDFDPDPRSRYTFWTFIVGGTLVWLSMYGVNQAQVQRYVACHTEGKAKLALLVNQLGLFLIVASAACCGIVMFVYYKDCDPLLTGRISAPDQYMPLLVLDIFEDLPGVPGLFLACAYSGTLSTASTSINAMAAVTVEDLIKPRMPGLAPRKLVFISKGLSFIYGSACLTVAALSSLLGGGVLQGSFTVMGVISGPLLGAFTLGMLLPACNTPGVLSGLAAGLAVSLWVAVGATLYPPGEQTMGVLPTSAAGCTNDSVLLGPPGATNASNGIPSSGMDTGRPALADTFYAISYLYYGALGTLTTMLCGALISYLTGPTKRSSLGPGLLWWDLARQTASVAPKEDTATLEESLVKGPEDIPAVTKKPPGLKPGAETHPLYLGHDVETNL
Experimental: Transcripts were injected into oocytes and oocytes were assayed for perchlorate-sensitive Na^+/I^− symport activity as described in Weiss, et al., supra.
Control assays were carried out in oocytes microinjected with water (lane-1). Na^+-dependence was ascertained by using choline in place of Na^+, and perchlorate sensitivity was tested by conducting assays in the presence of both Na+ and perchlorate.

For assay [2], the target named is T1, rat sodium/iodide symporter. Kind of assay: Iodide accumulation in COS cells transfected with sodium/iodide symporter cDNA. The assay is classed as cell-based. On the set-up: Beginning with Met at position 1, a long open reading frame codes for a protein of 618 amino acids; expressed in transfected cells; host or cells: Xenopus laevis oocytes microinjected with cRNA transcribed in vitro (T7 RNA polymerase) from the cDNA clone in pSPORT. Conditions: COS cells transfected with symporter cDNA clone, assayed 48 h after transfection.
Experimental: In FIG. 1A oocytes were microinjected with water (lane 1), 50 ng mRNA from FRTL-5 cells (lane 2), or approximately 20 ng cRNA transcripts made in vitro from pools containing the indicated number of cDNA clones (lanes 3-7, numbers without parentheses at bottom of FIG. 1A). […] Inset: Double reciprocal plot. […] Each point represents the average of triplicate determinations+/−SE.
A directional cDNA library was prepared in the PSPORT (BRL) vector from poly A^+ RNA isolated from FRTL-5 cells. cRNAs were synthesized in vitro using T7 RNA polymerase in the presence of m^7 GpppG from pools of cDNA clones. Transcripts were injected into oocytes and oocytes were assayed for perchlorate-sensitive Na^+/I^− symport activity as described in Weiss, et al., supra.

Turning to `I` [iodide], the “generated iodide concentration gradient” value in assay [1] (50 μM iodide in transport solution, functional volume 0.5 μl/oocyte) was greater than 30 fold.

`[O-][Cl+3]([O-])([O-])O` [perchlorate]: in assay [1] (assayed in the presence of both Na+ and perchlorate, 45 min), the “Na+/I- symport activity in the presence of perchlorate” value is reported as “virtually indistinguishable from background”. For the same compound, in assay [2], the “perchlorate sensitivity of Na+/I- symport activity” value is “perchlorate-sensitive”.
